The values below come from PubChem BioAssay (NCI).

“And” between values parts separate entries of the source, which are not always exact repeats. Identical values can stand only once.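 Protocol summary: plate cells (96-well), add compound at 5 concentrations, incubate 48 h, interpolate endpoints linearly. GI50: concentration for 50% inhibition of growth. TGI is the concentration that stops growth completely.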

Assay in all cases: NCI tumour cell line growth inhibition, 48 h
Test [1] deals with MOLT-4 leukemia.
In test [2] the test system is SN12C renal.
Test [3] relates to U251 CNS.
Test [4] concerns MDA-N.
Test [5] relates to NCI-H226 lung.
In test [6] the test system is NCI-H522 lung.
Test [7] relates to MDA-MB-231 breast.
The subject of test [8] is NCI/ADR-RES ovarian.
The subject of test [9] is RXF 393 renal.
The subject of test [10] is COLO 205 colon.
Test [11] concerns SR leukemia.

For `NC1=CC(=O)c2c(O)ccc(O)c2C1=O`, the TGI in test [1] is > 34.9 µM; in test [2] it was 31.5 µM; in test [3], 33.9 µM; in test [4], 13.1 µM; in [5], > 100 µM; in test [6], 18 µM. Further, the TGI in test [7] turned out to be 38.5 µM; in [8], 68.2 µM; in test [9], 22.1 µM; in [10], 20.9 µM.

For the compound `N#Cc1c(-c2ccc([N+](=O)[O-])cc2)cc(-c2ccc(Nc3ccnc4cc(Cl)ccc34)cc2)[nH]c1=O`, the TGI in [1], in test [3], in test [5], in test [6], in [7] and in [8] was > 100 µM each time. The TGI in test [9], in test [10] and in test [11] was > 100 µM in each case.

For the compound `CN(C)C(=O)C(F)(F)C(c1ccc(F)cc1)C1C(=O)N(C)C(=O)N(C)C1=O` (configuration not stated), the TGI in [1], in [3], in [5], in test [7], in [8] and in test [9] was > 100 µM throughout. Also, the TGI in [10] is > 100 µM.

Regarding `Cc1c2ccnc(C(N)=O)c2c(C)c2c1[nH]c1ccccc12`, the TGI in test [1] was 25.1 µM and 12.9 µM; in test [2], 27.9 µM and 31.6 µM; in test [3], 37.7 µM and 16.5 µM; in test [5], 19.8 µM and 15.7 µM; in test [6], 31.6 µM; in test [8], 34 µM. For the same compound, the TGI in test [9] was 16.6 µM; in test [10], 50 µM and > 100 µM. The GI50 was 5.44 µM in test [2], 4.14 µM in test [3] and 3.28 µM in test [5].

With `O=c1[nH]c(NCc2ccncc2)nc2nc[nH]c12`, the TGI in test [1], in [2], in [3], in [4], in test [5] and in test [6] was > 100 µM each time. In addition, the TGI in [7], in test [8], in test [9] and in test [10] was > 100 µM each time.

With `CSCC[C@@H](NC(=O)[C@H](CC(C)C)NC(=O)C(Cc1cnc[nH]1)NC(=O)CNC(=O)[C@@H](NC(=O)[C@H](C)NC(=O)[C@H](Cc1c[nH]c2ccccc12)NC(=O)[C@H](CCC(N)=O)NC(=O)[C@@H](N)CC(N)=O)C(C)C)C(N)=O` (some centres not stated), the TGI in test [1], in test [2], in [3], in test [5], in [6] and in test [8] was > 100 µM throughout. In addition, the TGI in [9] and in test [10] was > 100 µM in each case.

With `COc1cc2nc(-c3ccc(Cl)cc3)cc(OCCCN3CCOCC3)c2cc1OC`, the GI50 in test [1] is 2.85 µM; in test [2], 1.3 µM; in [3] it was 1.92 µM; in test [5], 0.997 µM; in [8], 1.15 µM; in [9], 1.12 µM. Besides, in [11], the GI50 was 0.414 µM. Moreover, the TGI is > 100 µM in test [1]; > 100 µM in [2]; > 100 µM in test [3]; 4.81 µM in [5]; > 100 µM in [8]; 3.79 µM in test [9]. The TGI in test [11] was > 100 µM.

On to `COC(=O)[C@]1(C)CCC[C@@]2(C)C1CC[C@]13C=C(C(C)C)[C@H](CC21)CC3(Cl)C#N` (some centres not stated), for which the TGI was > 100 µM in test [1]; > 100 µM in [2]; 49.4 µM in test [3]; 75.4 µM in test [5]; > 100 µM in [6]; > 100 µM in test [7]. Moreover, the TGI in test [8] was > 100 µM; in test [9], 97.5 µM; in [10] it was > 100 µM; in [11], > 100 µM.

As for `CO/N=C1\CC(NC(=O)C(F)(F)F)c2ccsc21` (configuration not stated), the TGI in test [1], in [2], in test [3], in test [4], in [5] and in [7] was > 100 µM each time. In addition, the TGI in [8], in test [9], in test [10] and in test [11] was > 100 µM throughout.

As to `Cn1c2ccccc2n2c3ncccc3c(=O)c(C#N)c12`, the TGI is > 100 µM in [1]; > 100 µM in [2]; 34 µM in test [3]; 4.65 µM in test [5]; 35.4 µM in [6]; 57.1 µM in test [7]. The TGI is > 100 µM in test [8], > 56.4 µM in test [9] and > 100 µM in test [11].

Turning to `COC(=O)c1ccccc1C1CN=NC12Cc1c(ccc(C)c1C)C2=O` (configuration not stated), the TGI in test [1], in test [2], in [3], in test [4], in test [5] and in test [6] was > 100 µM in each case. Moreover, the TGI in test [7], in [8], in test [9] and in test [10] was > 100 µM each time.

As to `CC(=O)c1ccc(Oc2c3ccccc3nc3ccccc23)cc1`, the TGI in [2] was determined as 16 µM; in [3], 25.9 µM; in test [4], 14.2 µM; in [5], 26.4 µM; in test [6], 25.4 µM; in test [7] it was 25.5 µM. Also, the TGI in test [8] was 30.4 µM; in test [9] it was 21.3 µM; in test [10], 7.55 µM.

With `CN(C)c1ccc(/C=C(\NC(=O)c2ccccc2)C(=O)NC(CC(=O)O)C(=O)O)cc1` (configuration not stated), the TGI in [1] was > 100 µM; in [2], > 100 µM; in test [3] it was > 100 µM; in test [5], > 100 µM; in [6], 46.8 µM; in test [7], > 100 µM. The TGI in test [8], in test [9], in [10] and in test [11] was > 100 µM throughout.
